Test system: Porcine Smooth Muscle Cell
Assay: Effects of compounds on cell proliferation using 3H thymidine incorporation
Format: cell-based
Details: serum/growth factor stimulated cells; for IC50: 24-36 h incubation, read-out: Porcine Smooth Muscle Cell Antiproliferation IC50
Experimental: Effects of Compounds on Cell Proliferation Using ^3H Thymidine Incorporation
Human and porcine smooth muscle cells were tested in early passage (generally passage 3-7) at sub-confluent conditions. Cultures were grown in 16 mm (24 well) multi-well culture dishes in medium 199 supplemented with 10% fetal bovine serum and 2% antibiotic/antimycotic. At sub-confluence, the cells were placed in a defined serum free medium (AIM-V; Gibco) for 24-48 h prior to initiating the experimental protocol.
Compounds were added to each well at 50 fold dilution (20 μL/well) and the plates were incubated for 24-36 h at 37° C. in 5% CO2. Compounds were initially dissolved in 50% ethanol and serially diluted into media. Compounds were routinely evaluated at concentrations from 1 to 100 μM. As a control, grade II porcine intestinal mucosal heparin (sodium salt) was routinely evaluated in all cell preparations at concentrations from 0.1 to 100 μg/mL.
At the completion of the test procedure, plates were placed on ice, washed three times with ice cold phosphate buffered saline (PBS) and incubated in ice cold 10% trichloroacetic acid (TCA) got 30 min to remove acid soluble proteins. Solution was transferred to scintillation vials containing 0.4 N HCl (500 μL/vial to neutralize NaOH) and each well was rinsed two times with water (500 μL) for a total volume of 2 mL/vial.
Data was obtained, in triplicate, for both control and experimental samples. Control (100%) data was obtained from maximally stimulated cells, as the result of growth factor or serum stimulation. Experimental data was obtained from cells maximally stimulated with growth factor or serum and treated with compound. Data are provided below in Table 1 as an IC50.

SMILES | IC50 | Porcine Smooth Muscle Cell Antiproliferation (% at 50 μM)
CC(=O)OCC1OC(NC(=O)c2ccc(Cl)nc2)C(OC(C)=O)C(OC(C)=O)C1OC1OC(COC(C)=O)C(OC(C)=O)C(OC(C)=O)C1OC(C)=O [Example 1, 6-Chloro-N-(Hepta-O-acetyl-β-D-cellobiosyl)-3-pyridinecarboxamide] | 3.55 µM | 
O=C(NC1OC(CO)C(OC2OC3COC(c4ccccc4)OC3C(O)C2O)C(O)C1O)c1ccc(Cl)nc1 [Example 2, N-(4′,6′-O-benzylidene-β-D-cellobiosyl)-6-chloro-nicotinamide] |  | 40% at 50 μM
COc1ccc(C(=O)NC2OC(COC(C)=O)C(OC3OC(COC(C)=O)C(OC(C)=O)C(OC(C)=O)C3OC(C)=O)C(OC(C)=O)C2OC(C)=O)c(OC)n1 (centres unmarked) [Example 4] | 3.11 µM | 
CC(=O)OCC1OC(NC(=O)c2ccc(F)c(Cl)c2)C(OC(C)=O)C(OC(C)=O)C1OC1OC(COC(C)=O)C(OC(C)=O)C(OC(C)=O)C1OC(C)=O [Example 5, N-(hepta-O-acetyl-β-D-cellobiosyl)-3-chloro-4-fluoro-benzamide] | 11.7 µM | 
O=C(NC1OC(CO)C(OC2OC3COC(c4ccccc4)OC3C(O)C2O)C(O)C1O)c1ccc(F)cc1Cl [Example 6, N-(4′,6′-O-benzylidene-β-D-cellobiosyl)-2-chloro-4-flouro-benzamide] |  | 5% at 50 μM
